Results as given in patent US20160066610A1, “METHODS FOR ENHANCING AGED MUSCLE REGENERATION” (ABBOTT LABORATORIES, priority 2013, published 2016).
Several values for one entry are separate records, joined by “and”; a condition that tells them apart may be missing. Equal entries are not always repeated.

Tested on: FGF2
Test: Intramuscular FGF2 in gastrocnemius muscle lysates after 8 weeks of dietary supplementation, aged SD rat model of sarcopenia
Format: in vivo, Sprague Dawley (SD) rat
Settings: for level of intramuscular FGF2, individual rat / level of intramuscular FGF2, AVE: aged (21 month) SD rats, gastrocnemius lysate, end of 8 week study, EGCg 50 mg/kg bw; for level of intramuscular FGF2, individual rat: Ca-HMB 340 mg/kg bw in AIN-93M diet, one value per rat (Rat 1-10); for % Change from Control (intramuscular FGF2): group average vs control diet AIN-93M, 8 weeks; for level of intramuscular FGF2, AVE: group average, Ca-HMB 340 mg/kg bw
Procedure: Example 3 illustrates the effect of 8 weeks of dietary supplementation in the aged Sprague Dawley (SD) rat model of sarcopenia. More particularly, the level of intramuscular FGF2 in gastrocnemius muscle lysates of aged SD rats (21 month) were analyzed and compared. The four experimental groups included:
1) control group: fed AIN-93M (purified diet);
2) EGCg group: fed AIN-93M+EGCg (Teavigo®-DSM-50 mg/kg bw);
3) HMB group: fed AIN-93M+Ca-HMB (340 mg/kg bw); and
4) HMB+EGCg group: fed AIN-93M+Ca-HMB (340 mg/kg bw)+EGCg (Teavigo®-50 mg/kg bw).
A total of 40 rats were divided equally among the four groups. Whole gastrocnemius muscles were collected from euthanized rats and flash frozen in liquid nitrogen. Approximately 200 mg tissue was obtained from each muscle by mechanical biopsy punch. Specimens were then pulverized on liquid nitrogen and transferred to 15 mL conical tube and weighed. A mild, detergent free lysis buffer (9×) was added to the dried specimen in the conical tube. 9× Lysis buffer (50 mM Tris.HCl, 2 mM EDTA, pH 7.4/NaOH) was supplemented with a mammalian protease inhibitor cocktail (Sigma) at a 1:200 dilution and stored on ice. The specimens were then vortexed again for 10 sec. and transferred to a 1.5 mL tube. Lysates were centrifuged/clarified for 5 min. at 11000 rpm at 4° C. in a standard table-top Eppendorf centrifuge. Supernatant (1 mL) was aliquotted to a 2 mL cryotube and stored at −80° C. Lystates were analyzed by Myriad Rules Based Medicine (Austin, Tex.) on the RodentMAP® v. 2.0 Antigens and Rat METABOLIC® multi-analyte profiling platforms.

| Compound | level of intramuscular FGF2, individual rat | % Change from Control (intramuscular FGF2) [%] | level of intramuscular FGF2, AVE |
| --- | --- | --- | --- |
| CC(C)(O)CC(=O)O [HMB, beta-hydroxy-beta-methylbutyrate] | 15.0 ng/mL of lysate and 21.0 ng/mL of lysate and 6.1 ng/mL of lysate and 3.1 ng/mL of lysate and 4.3 ng/mL of lysate and 11.0 ng/mL of lysate and 4.0 ng/mL of lysate and 4.9 ng/mL of lysate | 18.8 | 8.68 ng/mL of lysate |
| epigallocatechin-3-gallate [EGCg] | 3.7 ng/mL of lysate (2×) and 16.0 ng/mL of lysate and 15.0 ng/mL of lysate and 9.9 ng/mL of lysate and 5.5 ng/mL of lysate and 3.1 ng/mL of lysate (3×) and 7.8 ng/mL of lysate | −2.9 | 7.09 ng/mL of lysate |
